According to PubChem BioAssay (NCI):
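Growth conditions: 96-well plates. Treatment: test compound, 48 hours, 5 concentrations. Analysis: linear interpolation between bracketing concentrations; unreached endpoints set to highest concentration. GI50: concentration for 50% inhibition of growth. Definition used: TGI = concentration required for complete inhibition of growth.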

Assays:
Assay in all cases: inhibition of tumour cell growth, NCI panel, 48 h
786-0 renal = system: 786-0 renal
DLD-1 colon = system: DLD-1 colon
LXFL 529 NSCLC = system: LXFL 529 NSCLC
M19-MEL melanoma = system: M19-MEL melanoma
NCI-H23 lung = system: NCI-H23 lung
OVCAR-3 ovarian = system: OVCAR-3 ovarian
SF-295 CNS = system: SF-295 CNS
SK-MEL-28 melanoma = system: SK-MEL-28 melanoma
UACC-257 melanoma = system: UACC-257 melanoma
BT-549 breast = system: BT-549 breast
T-47D breast = system: T-47D breast

Structure (SMILES)	TGI (786-0 renal) [µM]	TGI (DLD-1 colon) [µM]	TGI (LXFL 529 NSCLC) [µM]	TGI (M19-MEL melanoma) [µM]	TGI (NCI-H23 lung) [µM]	TGI (OVCAR-3 ovarian) [µM]	TGI (SF-295 CNS) [µM]	TGI (SK-MEL-28 melanoma) [µM]	TGI (UACC-257 melanoma) [µM]	GI50 (786-0 renal) [µM]	GI50 (BT-549 breast) [µM]	TGI (BT-549 breast) [µM]	GI50 (NCI-H23 lung) [µM]	GI50 (OVCAR-3 ovarian) [µM]	GI50 (SF-295 CNS) [µM]	GI50 (SK-MEL-28 melanoma) [µM]	GI50 (T-47D breast) [µM]	TGI (T-47D breast) [µM]	GI50 (UACC-257 melanoma) [µM]	GI50 (DLD-1 colon) [µM]
Brc1cc(C2OCCCO2)ccc1OCc1ccccc1	> 100	> 100	> 100	> 100	> 100	> 100	> 100	> 100	> 100											
COc1ccc(NC(=O)CC(=O)N/N=C(\C)c2cc3ccccc3oc2=O)cc1	> 100	> 100		> 100	> 100	> 100	> 100	> 100	> 100											
Cc1ccc(N2C(=O)/C(=C/c3ccc(N(CCC#N)CCC#N)cc3)N=C2COc2ccc(Cl)cc2Cl)cc1	> 100	> 100	> 100		> 100	> 100	> 100	> 100	> 100											
CCCC(O)c1cn(-c2cccc(S(=O)(=O)O)c2)nn1 (centres undefined)	> 100	> 100	> 100	> 100	> 100	> 100	> 100	> 100	> 100											
CCCCNS(=O)(=O)c1ccc(-c2ccc3c(c2)-c2ccc(S(=O)(=O)NCCCC)cc2S3(=O)=O)cc1	27.9	> 100	33.9	> 100	43	76.2	45.1	29.7	> 100											
C=CCC12CC(=O)CCC1c1ccc(OC)cc1C2=O (centres undefined)	> 100	> 100	> 100	> 100	> 100	> 100	> 100	> 100	> 100											
COC(=O)C(=O)C(C(=O)C(=O)Nc1ccccc1[N+](=O)[O-])c1nc2ccc([N+](=O)[O-])cc2[nH]c1=O (centres undefined)	> 100		> 100	> 100	> 100		> 100	> 100	> 100											
Cc1ccccc1-n1c(=S)[nH]c2c(sc(=O)n2-c2ccccc2C)c1=O	> 100	> 100	> 100	> 100	> 100	> 100	> 100	> 100	> 100											
O=C1OC(=O)C23CSCC12C1C=CC3O1 (centres undefined)	> 100	> 100	> 100	> 100	> 100	> 100	> 100	> 100	> 100											
O=c1cc[nH]cc1-c1c[nH]ccc1=O	> 100	> 100	> 100	> 100	> 100	> 100	> 100	> 100	> 100											
COc1ccc(-c2cc3ccccc3[nH]c2=O)cc1OC	> 100	> 100	> 100	> 100	> 100		> 100	> 100	> 100											
CCOC(=O)c1sc2c(C(=O)OCC)n3cc(C)cc(C)c3c2c1O	> 100	> 100	> 100	> 100	> 100	> 100	> 100	> 100												
CCC1CCCCN1CC(C(C)=O)C(c1ccccc1)c1c(O)c2ccccc2oc1=O (centres undefined)	> 100	> 100		> 100	> 100	> 100	> 100	> 100	> 100											
CC(=O)OCC1OC(n2c(=O)[nH]c(=O)c3n[nH]nc32)C(OC(C)=O)C(OC(C)=O)C1OC(C)=O (centres undefined)	> 100	> 100	> 100	> 100	> 100		> 100	> 100	> 100											
O=c1c2ccccc2oc2ccccc12 (tested in a mixture with another compound)	> 100	7.75	> 100			> 100	53.3		9.31											
Nc1nc(Cl)nc2c1ncn2C1OC(CO)C(O)C1F (centres undefined)	13.6				0.626	> 100	13.5	> 100	> 100	0.0876	0.664	> 37.6	0.02	> 100	1.68	> 9.44	10.1	> 100	4.17	
Nc1c(C(=O)c2cccc(C(O)CO)c2)cnn1-c1ccc(F)cc1 (centres undefined)	> 25				> 25	> 25	> 25	> 25	> 25	> 25	> 25	> 25	> 25	> 25	> 25	> 25	> 25	> 25	> 25	
O=C1C(Cl)=C(Cl)C(=O)N1c1ccc(Cl)c(Cl)c1Cl	> 100	> 100	88	> 100	> 100	> 100	> 100	> 100	> 100											
O=C(O)c1c2c(cc3c(=O)c4ccccc4[nH]c13)CCCC2	> 100		> 100	> 100	> 100	> 100	> 100	> 100	> 100											
COC(=O)CC1(O)C=CC(=O)C=C1	6.89				10.9	13.7	17.7	7.47	7.64			18.1						25.7		
Cc1ccc(S(=O)(=O)n2cc([C@@]3(O)C[C@H](CSC#N)OC3=O)c3ccccc32)cc1	26.5				> 100	21	69.2	27.7	56.4	12.7	16.9	33.1	26.5	8.81	16.1	14	12.8	32.5	10.9	
CCCCCCCC(=O)[O-].CCCCCCCC(=O)[O-].N.N.N.N.[Co+3].[O-][Cl+3]([O-])([O-])[O-]	> 100	> 100			> 100		> 100	> 100	> 100	> 100			> 100		> 100	> 100			> 100	> 100
